From ChEMBL document CHEMBL4041521, “3-Aroylindoles display antitumor activity in vitro and in vivo: Effects of N1-substituents on biological activity” (Eur J Med Chem, 2017)
Active and inactive are the calls of the source. No cut-off for these calls is given here.

Legend:
Histone deacetylase 9 = Histone deacetylase 9 (Homo sapiens, UniProt Q9UKV0); test: Inhibition of recombinant human HDAC9 using fluorogenic substrate by fluorescence assay
Homo sapiens = organism: Homo sapiens; test: Inhibition of tubulin polymerization in human PC3 cells assessed as […] in MPM2 expression at 0.01 to 10 uM by Western blot analysis; type: cell-based
HCT-116 = test: Antiproliferative activity against human HCT116 cells measured after 48 hrs by sulforhodamine-B assay; type: functional, cell-based; settings: HCT-116, 48 h
A549 = test: Antiproliferative activity against human A549 cells measured after 48 hrs by sulforhodamine-B assay; type: functional, cell-based; settings: A549, 48 h
Histone deacetylase 3 = Histone deacetylase 3 (Homo sapiens, UniProt O15379); test: Inhibition of recombinant human HDAC3 using fluorogenic substrate by fluorescence assay
Histone deacetylase 5 = Histone deacetylase 5 (Homo sapiens, UniProt Q9UQL6); test: Inhibition of recombinant human HDAC5 using fluorogenic substrate by fluorescence assay
Histone deacetylase 8 = target: T1, Histone deacetylase 8 (Homo sapiens, UniProt Q9BY41); test: Inhibition of recombinant human HDAC8 using fluorogenic substrate by fluorescence assay
T1 sequence (Q9BY41 whole entry): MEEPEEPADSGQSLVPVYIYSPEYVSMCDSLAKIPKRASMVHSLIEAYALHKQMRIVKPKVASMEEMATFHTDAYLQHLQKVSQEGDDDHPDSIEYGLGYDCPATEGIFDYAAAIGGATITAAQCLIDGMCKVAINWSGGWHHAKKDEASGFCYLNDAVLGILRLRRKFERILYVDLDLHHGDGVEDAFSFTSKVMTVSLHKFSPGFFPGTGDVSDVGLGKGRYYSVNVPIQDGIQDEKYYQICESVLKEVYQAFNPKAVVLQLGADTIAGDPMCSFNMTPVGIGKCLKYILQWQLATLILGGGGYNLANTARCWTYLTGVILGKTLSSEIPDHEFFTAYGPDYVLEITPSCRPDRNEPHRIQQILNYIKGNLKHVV

[1] = Inhibition of HDAC activity in human HeLa cell nuclear extract using fluorometric substrate measured after 30 mins by fluorescence assay; type: cell-based
[2] = target: T2, Polyamine deacetylase HDAC10 (Homo sapiens, UniProt Q969S8); test: Inhibition of recombinant human HDAC10 using fluorogenic substrate by fluorescence assay
T2 sequence (Q969S8 whole entry): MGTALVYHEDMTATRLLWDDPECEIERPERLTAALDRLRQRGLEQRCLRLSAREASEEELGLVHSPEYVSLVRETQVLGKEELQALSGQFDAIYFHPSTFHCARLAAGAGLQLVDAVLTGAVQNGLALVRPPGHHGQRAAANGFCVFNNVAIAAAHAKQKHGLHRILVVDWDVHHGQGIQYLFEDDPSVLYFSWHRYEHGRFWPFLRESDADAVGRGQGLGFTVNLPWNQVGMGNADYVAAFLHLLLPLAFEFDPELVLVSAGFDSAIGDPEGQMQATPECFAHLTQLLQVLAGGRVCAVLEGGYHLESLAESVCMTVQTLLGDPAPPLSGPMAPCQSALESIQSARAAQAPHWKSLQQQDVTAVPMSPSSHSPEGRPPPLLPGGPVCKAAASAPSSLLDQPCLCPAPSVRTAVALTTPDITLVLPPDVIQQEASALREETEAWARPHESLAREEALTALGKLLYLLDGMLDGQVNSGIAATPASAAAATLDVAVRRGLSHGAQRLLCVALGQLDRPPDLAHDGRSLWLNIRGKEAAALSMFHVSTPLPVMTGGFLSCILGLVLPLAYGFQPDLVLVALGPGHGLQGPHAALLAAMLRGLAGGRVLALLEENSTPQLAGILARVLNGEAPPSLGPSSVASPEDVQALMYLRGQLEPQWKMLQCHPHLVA

Histone deacetylase 4 = Histone deacetylase 4 (Homo sapiens, UniProt P56524); test: Inhibition of recombinant human HDAC4 using fluorogenic substrate by fluorescence assay
Histone deacetylase 11 = target: T3, Histone deacetylase 11 (Homo sapiens, UniProt Q96DB2); test: Inhibition of recombinant human HDAC11 using fluorogenic substrate by fluorescence assay
T3 sequence (Q96DB2 whole entry): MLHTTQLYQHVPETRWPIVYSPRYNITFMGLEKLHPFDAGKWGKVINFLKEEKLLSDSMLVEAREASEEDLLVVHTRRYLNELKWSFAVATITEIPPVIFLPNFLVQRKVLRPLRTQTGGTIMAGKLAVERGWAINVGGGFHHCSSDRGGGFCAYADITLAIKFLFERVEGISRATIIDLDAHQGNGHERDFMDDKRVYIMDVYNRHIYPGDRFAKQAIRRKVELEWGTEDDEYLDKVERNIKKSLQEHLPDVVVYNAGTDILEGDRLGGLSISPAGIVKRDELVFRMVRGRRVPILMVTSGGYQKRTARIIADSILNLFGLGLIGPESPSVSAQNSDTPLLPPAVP

Histone deacetylase 4, sequence (P56524 whole entry): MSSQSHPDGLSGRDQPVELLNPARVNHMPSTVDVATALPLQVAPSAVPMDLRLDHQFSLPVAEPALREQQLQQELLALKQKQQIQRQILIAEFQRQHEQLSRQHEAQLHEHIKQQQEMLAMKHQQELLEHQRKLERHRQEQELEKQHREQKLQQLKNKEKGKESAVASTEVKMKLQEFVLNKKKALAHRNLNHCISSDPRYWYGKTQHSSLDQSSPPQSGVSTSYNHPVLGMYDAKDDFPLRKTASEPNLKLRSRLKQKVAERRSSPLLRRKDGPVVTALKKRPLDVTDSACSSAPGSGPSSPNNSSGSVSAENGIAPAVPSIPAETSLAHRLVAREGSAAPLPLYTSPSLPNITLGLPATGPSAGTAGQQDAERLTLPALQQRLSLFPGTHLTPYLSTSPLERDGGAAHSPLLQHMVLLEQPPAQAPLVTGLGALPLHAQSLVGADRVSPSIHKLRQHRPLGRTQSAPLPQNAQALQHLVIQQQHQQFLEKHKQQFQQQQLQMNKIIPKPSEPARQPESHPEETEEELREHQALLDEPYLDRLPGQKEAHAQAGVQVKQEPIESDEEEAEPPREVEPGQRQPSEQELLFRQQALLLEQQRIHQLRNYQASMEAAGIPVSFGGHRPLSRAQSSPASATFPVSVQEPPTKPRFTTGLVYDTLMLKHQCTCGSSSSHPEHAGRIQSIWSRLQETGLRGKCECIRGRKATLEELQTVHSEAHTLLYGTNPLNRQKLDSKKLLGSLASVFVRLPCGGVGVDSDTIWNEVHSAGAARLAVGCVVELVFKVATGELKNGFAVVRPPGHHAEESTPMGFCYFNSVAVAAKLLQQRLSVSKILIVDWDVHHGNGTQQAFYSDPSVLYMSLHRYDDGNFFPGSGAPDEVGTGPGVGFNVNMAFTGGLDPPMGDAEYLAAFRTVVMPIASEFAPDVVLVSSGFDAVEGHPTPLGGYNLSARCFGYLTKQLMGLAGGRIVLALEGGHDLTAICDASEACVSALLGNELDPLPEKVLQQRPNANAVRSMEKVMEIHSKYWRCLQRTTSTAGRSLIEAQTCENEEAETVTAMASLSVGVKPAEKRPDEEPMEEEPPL
Histone deacetylase 3, sequence (O15379 whole entry): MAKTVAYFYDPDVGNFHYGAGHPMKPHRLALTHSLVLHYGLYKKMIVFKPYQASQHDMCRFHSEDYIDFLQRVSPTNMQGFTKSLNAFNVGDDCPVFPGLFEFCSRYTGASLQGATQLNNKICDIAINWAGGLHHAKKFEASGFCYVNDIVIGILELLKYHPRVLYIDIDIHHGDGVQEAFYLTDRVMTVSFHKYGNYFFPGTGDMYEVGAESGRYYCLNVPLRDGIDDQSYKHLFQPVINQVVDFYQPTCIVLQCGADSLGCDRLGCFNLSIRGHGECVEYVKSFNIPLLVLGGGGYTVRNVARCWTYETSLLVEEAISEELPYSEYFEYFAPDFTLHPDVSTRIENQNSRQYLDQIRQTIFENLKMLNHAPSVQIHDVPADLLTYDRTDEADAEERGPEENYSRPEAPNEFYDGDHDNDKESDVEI
Histone deacetylase 9, sequence (Q9UKV0 whole entry): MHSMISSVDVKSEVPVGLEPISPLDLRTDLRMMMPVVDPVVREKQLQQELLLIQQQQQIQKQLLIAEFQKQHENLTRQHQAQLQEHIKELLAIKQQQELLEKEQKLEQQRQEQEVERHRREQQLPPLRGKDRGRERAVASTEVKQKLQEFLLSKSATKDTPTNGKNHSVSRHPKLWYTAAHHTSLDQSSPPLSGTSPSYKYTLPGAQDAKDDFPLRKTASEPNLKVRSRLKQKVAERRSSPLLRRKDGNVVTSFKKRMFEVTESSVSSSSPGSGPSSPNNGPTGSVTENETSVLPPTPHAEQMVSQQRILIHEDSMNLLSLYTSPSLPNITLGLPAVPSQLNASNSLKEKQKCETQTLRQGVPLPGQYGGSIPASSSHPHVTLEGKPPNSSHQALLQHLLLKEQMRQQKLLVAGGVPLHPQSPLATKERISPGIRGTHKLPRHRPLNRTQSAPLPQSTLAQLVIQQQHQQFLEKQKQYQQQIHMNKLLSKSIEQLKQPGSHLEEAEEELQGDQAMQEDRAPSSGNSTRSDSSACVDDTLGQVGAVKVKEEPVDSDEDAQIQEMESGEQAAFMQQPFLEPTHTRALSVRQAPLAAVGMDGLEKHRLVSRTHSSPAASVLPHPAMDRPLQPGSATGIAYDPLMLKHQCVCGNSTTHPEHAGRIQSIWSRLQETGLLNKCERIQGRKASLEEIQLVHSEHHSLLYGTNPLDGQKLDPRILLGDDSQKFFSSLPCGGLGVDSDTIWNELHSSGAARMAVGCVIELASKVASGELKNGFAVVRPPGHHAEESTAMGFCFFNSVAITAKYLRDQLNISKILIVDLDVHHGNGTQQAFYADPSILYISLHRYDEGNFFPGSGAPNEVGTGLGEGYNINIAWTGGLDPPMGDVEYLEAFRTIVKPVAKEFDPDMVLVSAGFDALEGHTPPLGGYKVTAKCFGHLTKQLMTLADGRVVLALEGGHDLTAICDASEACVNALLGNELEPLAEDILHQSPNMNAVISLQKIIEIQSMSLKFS
Histone deacetylase 5, sequence (Q9UQL6 whole entry): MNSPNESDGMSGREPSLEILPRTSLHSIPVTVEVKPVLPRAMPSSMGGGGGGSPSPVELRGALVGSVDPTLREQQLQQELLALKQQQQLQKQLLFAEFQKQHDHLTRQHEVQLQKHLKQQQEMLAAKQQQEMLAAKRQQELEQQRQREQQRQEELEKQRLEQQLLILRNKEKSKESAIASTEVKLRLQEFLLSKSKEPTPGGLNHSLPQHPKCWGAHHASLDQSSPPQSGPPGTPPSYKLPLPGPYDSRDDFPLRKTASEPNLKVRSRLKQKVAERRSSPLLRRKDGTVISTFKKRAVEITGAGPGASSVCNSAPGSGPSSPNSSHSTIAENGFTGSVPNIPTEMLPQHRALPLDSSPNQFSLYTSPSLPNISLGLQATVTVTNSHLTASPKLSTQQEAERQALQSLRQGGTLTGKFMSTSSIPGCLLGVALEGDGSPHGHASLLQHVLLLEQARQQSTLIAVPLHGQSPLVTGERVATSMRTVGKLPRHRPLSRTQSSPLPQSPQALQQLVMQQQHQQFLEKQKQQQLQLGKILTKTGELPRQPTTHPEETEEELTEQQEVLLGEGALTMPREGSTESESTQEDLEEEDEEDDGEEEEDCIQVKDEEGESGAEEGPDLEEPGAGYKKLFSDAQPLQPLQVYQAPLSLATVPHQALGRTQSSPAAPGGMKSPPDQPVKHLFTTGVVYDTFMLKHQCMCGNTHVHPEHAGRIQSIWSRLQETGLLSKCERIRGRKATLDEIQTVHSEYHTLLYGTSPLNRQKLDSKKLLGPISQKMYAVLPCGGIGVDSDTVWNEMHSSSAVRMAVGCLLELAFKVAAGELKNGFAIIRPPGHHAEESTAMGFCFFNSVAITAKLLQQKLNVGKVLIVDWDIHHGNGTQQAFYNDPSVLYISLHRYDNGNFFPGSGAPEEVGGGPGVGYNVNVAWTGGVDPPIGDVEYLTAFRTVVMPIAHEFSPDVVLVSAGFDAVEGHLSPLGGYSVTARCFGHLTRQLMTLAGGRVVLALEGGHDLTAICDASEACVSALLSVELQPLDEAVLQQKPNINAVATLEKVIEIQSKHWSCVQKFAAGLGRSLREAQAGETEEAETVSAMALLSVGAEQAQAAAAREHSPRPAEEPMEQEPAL

| Compound | IC50 (Histone deacetylase 9; read-out: IC50) [nM] | inhibition (Homo sapiens) | IC50 (HCT-116) [nM] | IC50 (A549) [nM] | IC50 (Histone deacetylase 3; read-out: IC50) [nM] | IC50 (Histone deacetylase 5) [nM] | IC50 (Histone deacetylase 8) [nM] | IC50 [1] [nM] | IC50 ([2]; read-out: IC50) [nM] | IC50 (Histone deacetylase 4; read-out: IC50) [nM] | IC50 (Histone deacetylase 11) [nM] | IC50 (Histone deacetylase 9) | IC50 (Histone deacetylase 3) | IC50 [2] | IC50 (Histone deacetylase 4) |
| --- | --- | --- | --- | --- | --- | --- | --- | --- | --- | --- | --- | --- | --- | --- | --- |
| COc1ccc2c(C(=O)c3cc(OC)c(OC)c(OC)c3)cn(Cc3ccc(C(=O)NO)cc3)c2c1 | 1680 | Active | 485 | 206 | 6530 | 1030 | 390 | 611 | 8230 | 1980 | 651 | – | – | – | – |
| COc1ccc2c(C(=O)c3cc(OC)c(OC)c(OC)c3)cn(S(=O)(=O)c3cccc(/C=C/C(=O)NO)c3)c2c1 | – | Active | 43.9 | 72.5 | – | 356000 | 16200 | 135 | – | – | 8870 | Not Active | Not Active | Not Active | Not Active |
